According to patent US11590116B2 (THERAVANCE BIOPHARMA R&D IP, LLC, priority 2019, dated 2023):

What was measured:
[1] = tested on: TGF-β-stimulated SMAD3 phosphorylation in BEAS-2B cells; assay: Cellular ALK5 potency assay, inhibition of TGF-β stimulated pSMAD3 formation in BEAS-2B cells; assay type: cell-based; settings: Homo sapiens; inhibition of TGF-β stimulated pSMAD3 formation, BEAS-2B cells; read-out: BEAS2B pIC50 (converted)
Outline: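 pSMAD3 was quantified by AlphaLISA in BEAS-2B lysates after 10 ng/mL TGF-β (final) for 30 min. Before stimulation, cells received compound for 1 h at 37° C in supplemented HBSS. Values are pIC50, relative to TGF-β-stimulated cells without compound.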

[2] = target: T1, recombinant human ALK5 (TGF-βR1) protein (Homo sapiens, UniProt P36897); assay: Biochemical ALK5 (TGF-βR1) assay to measure pKi (LANCE Ultra ULight kinase assay); settings: apparent pKi from pIC50 by Cheng-Prusoff, read-out: ALK5 pKi (converted)
T1 construct: purchased Life Technologies PR9075A
T1 sequence (P36897 34-503): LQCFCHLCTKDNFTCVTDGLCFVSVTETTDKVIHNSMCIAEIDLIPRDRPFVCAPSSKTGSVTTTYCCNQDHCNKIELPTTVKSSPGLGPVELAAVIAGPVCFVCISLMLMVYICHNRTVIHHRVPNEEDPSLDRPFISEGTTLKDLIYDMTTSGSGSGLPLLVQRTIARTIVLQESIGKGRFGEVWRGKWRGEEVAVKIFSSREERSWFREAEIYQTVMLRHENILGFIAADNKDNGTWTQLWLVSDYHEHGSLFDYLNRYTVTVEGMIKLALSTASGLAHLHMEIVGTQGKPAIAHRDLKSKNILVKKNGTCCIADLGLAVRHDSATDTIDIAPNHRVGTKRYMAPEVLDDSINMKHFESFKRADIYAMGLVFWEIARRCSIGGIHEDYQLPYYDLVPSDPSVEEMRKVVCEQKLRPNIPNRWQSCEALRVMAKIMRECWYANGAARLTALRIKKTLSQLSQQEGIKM
Outline: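 After a 60 min room-temperature preincubation of ALK5 with compound, phosphorylation proceeds 60 min at 37 °C on ATP addition (125 μM as 5× stock). Detection: Eu-labelled phospho-Thr1342 Topo IIα antibody in EDTA buffer, pH 7.0; emission 665 nm.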

SMILES | IC50 [1] | Ki [2]
Cc1nc(-c2n[nH]cc2-c2ccc3ncc(-c4cnn(C[C@H]5C[C@@H](N)C5)c4)cc3n2)ccc1F [Compound 517, 3-[[4-[6-[3-(5-fluoro-6-methyl-2-pyridyl)-1H-pyrazol-4-yl]-1,5-naphthyridin-3-yl]pyrazol-1-yl]methyl]cyclobutanamine] | 25.1 to 158 nM | 0.0398 to 0.316 nM
Cc1cccc(-c2n[nH]cc2-c2ccc3ncc(-c4ccccn4)cc3n2)n1 [Compound 518, 2-[3-(6-methyl-2-pyridyl)-1H-pyrazol-4-yl]-7-(2-pyridyl)-1,5-naphthyridine] | < 20 nM | 0.0398 to 0.316 nM
Cc1cccc(-c2[nH]cnc2-c2ccc3ncc(Nc4ccc(N5CCNCC5)cn4)cc3c2)n1 [Compound 519, 6-[5-(6-methyl-2-pyridyl)-1H-imidazol-4-yl]-N-(5-piperazin-1-yl-2-pyridyl)quinolin-3-amine] | 200 to 1260 nM | 0.0398 to 0.316 nM
Cc1nc(-c2n[nH]cc2-c2ccc3ncc(-c4nnn5c4NCC5)cc3n2)ccc1F [Compound 520, 7-(5,6-dihydro-4H-imidazo[1,2-c]triazol-3-yl)-2-[3-(5-fluoro-6-methyl-2-pyridyl)-1H-pyrazol-4-yl]-1,5-naphthyridine] | 25.1 to 158 nM | < 0.0316 nM
Cc1cccc(-c2[nH]nnc2-c2ccc3ncc(-c4c[nH]nc4C(F)(F)F)cc3n2)n1 [Compound 521, 2-[5-(6-methyl-2-pyridyl)-1H-triazol-4-yl]-7-[3-(trifluoromethyl)-1H-pyrazol-4-yl]-1,5-naphthyridine] | 25.1 to 158 nM | 0.398 to 3.16 nM
Cc1cccc(-c2[nH]cnc2-c2ccc3ncc(-c4cccc(C(=O)O[C@H]5CCN(C)C5)c4)cc3c2)n1 [Compound 522, [(3S)-1-methylpyrrolidin-3-yl] 3-[6-[5-(6-methyl-2-pyridyl)-1H-imidazol-4-yl]-3-quinolyl]benzoate] | 25.1 to 158 nM | 0.0398 to 0.316 nM
Cc1cccc(-c2[nH]ncc2-c2ccc3ncc(C(=O)OC4CCN(C)C4)cc3n2)n1 (centres unmarked) [Compound 523, (1-methylpyrrolidin-3-yl) 6-[5-(6-methyl-2-pyridyl)-1H-pyrazol-4-yl]-1,5-naphthyridine-3-carboxylate] | 25.1 to 158 nM | 0.0398 to 0.316 nM
Cc1cccc(-c2nc3ccccn3c2-c2ccc3ncc(-c4cnc5n4CCNC5)cc3n2)n1 [Compound 524, 2-[2-(6-methyl-2-pyridyl)imidazo[1,2-a]pyridin-3-yl]-7-(5,6,7,8-tetrahydroimidazo[1,2-a]pyrazin-3-yl)-1,5-naphthyridine] | 25.1 to 158 nM | 0.0398 to 0.316 nM
Cc1cccc(-c2n[nH]cc2-c2ccc3ncc(-c4cnn5c4NCCC5)cc3n2)n1 [Compound 525, 2-[3-(6-methyl-2-pyridyl)-1H-pyrazol-4-yl]-7-(4,5,6,7-tetrahydropyrazolo[1,5-a]pyrimidin-3-yl)-1,5-naphthyridine] | < 20 nM | < 0.0316 nM
Cc1nc(-c2n[nH]cc2-c2ccc3ncc(NCCN4CCCC4(C)C)cc3n2)ccc1F [Compound 526, N-(2-(2,2-dimethylpyrrolidin-1-yl)ethyl)-6-(3-(5-fluoro-6-methylpyridin-2-yl)-1H-pyrazol-4-yl)-1,5-naphthyridin-3-amine] | 25.1 to 158 nM | < 0.0316 nM
CNCCn1cc(-c2cnc3ccc(-c4c(-c5cccc(C)n5)nc5ccccn45)nc3c2)cn1 [Compound 527, N-methyl-2-(4-(6-(2-(6-methylpyridin-2-yl)imidazo[1,2-a]pyridin-3-yl)-1,5-naphthyridin-3-yl)-1H-pyrazol-1-yl)ethan-1-amine] | 25.1 to 158 nM | 0.0398 to 0.316 nM
Cc1cccc(-c2n[nH]cc2-c2ccc3ncc(N4CCN(C5(C(N)=O)CCCC5)CC4)cc3n2)n1 [Compound 528, 1-[4-[6-[3-(6-methyl-2-pyridyl)-1H-pyrazol-4-yl]-1,5-naphthyridin-3-yl]piperazin-1-yl]cyclopentanecarboxamide] | 200 to 1260 nM | 0.398 to 3.16 nM
Cc1cccc(-c2n[nH]cc2-c2ccc3ncc(N4CCNCC4)cc3c2)n1 [Compound 529, 6-[3-(6-methyl-2-pyridyl)-1H-pyrazol-4-yl]-3-piperazin-1-yl-quinoline] | < 20 nM | < 0.0316 nM
Cc1cccc(-c2n[nH]cc2-c2ccc3ncc(NC(=O)CCN4CCN(C(C)C)CC4)cc3n2)n1 [Compound 530, 3-(4-isopropylpiperazin-1-yl)-N-[6-[3-(6-methyl-2-pyridyl)-1H-pyrazol-4-yl]-1,5-naphthyridin-3-yl]propanamide] | 25.1 to 158 nM | 0.0398 to 0.316 nM
Cc1cccc(-c2[nH]cnc2-c2ccc3ncc(C4=CCCC(N)C4)cc3c2)n1 (centres unmarked) [Compound 531, 3-[6-[5-(6-methyl-2-pyridyl)-1H-imidazol-4-yl]-3-quinolyl]cyclohex-3-en-1-amine] | < 20 nM | < 0.0316 nM
CCc1cccc(-c2n[nH]cc2-c2ccc3ncc(N4CCC(N5CCCC5)CC4)cc3n2)n1 [Compound 532, 2-(3-(6-ethylpyridin-2-yl)-1H-pyrazol-4-yl)-7-(4-(pyrrolidin-1-yl)piperidin-1-yl)-1,5-naphthyridine] | 25.1 to 158 nM | < 0.0316 nM
Cc1cccc(-c2nnn(Cc3ccccc3)c2-c2ccc3ncc(N4CCC(N5CCN(C)CC5)CC4)cc3c2)n1 [Compound 533, 6-[3-benzyl-5-(6-methyl-2-pyridyl)triazol-4-yl]-3-[4-(4-methylpiperazin-1-yl)-1-piperidyl]quinoline] | 200 to 1260 nM | 0.0398 to 0.316 nM
Cc1nc(-c2n[nH]cc2-c2ccc3ncc(-c4cnn5c4NCC5)cc3n2)ccc1F [Compound 534, 7-(2,3-dihydro-1H-imidazo[1,2-b]pyrazol-7-yl)-2-[3-(5-fluoro-6-methyl-2-pyridyl)-1H-pyrazol-4-yl]-1,5-naphthyridine] | < 20 nM | < 0.0316 nM
Cc1cccc(-c2n[nH]cc2-c2ccc3ncc(N4CC5CNC5C4)cc3c2)n1 (centres unmarked) [Compound 535, 3-(3,6-diazabicyclo[3.2.0]heptan-3-yl)-6-[3-(6-methyl-2-pyridyl)-1H-pyrazol-4-yl]quinoline] | 25.1 to 158 nM | 0.0398 to 0.316 nM
Cc1nc(-c2[nH]cnc2-c2ccc3ncc(-c4cn[nH]c4)cc3n2)ccc1F [Compound 536, 2-[5-(5-fluoro-6-methyl-2-pyridyl)-1H-imidazol-4-yl]-7-(1H-pyrazol-4-yl)-1,5-naphthyridine] | < 20 nM | < 0.0316 nM
Cc1cccc(-c2n[nH]cc2-c2ccc3ncc(-c4cnc5n4CCNC5)cc3c2)n1 [Compound 538, 6-[3-(6-methyl-2-pyridyl)-1H-pyrazol-4-yl]-3-(5,6,7,8-tetrahydroimidazo[1,2-a]pyrazin-3-yl)quinoline] | 25.1 to 158 nM | 0.398 to 3.16 nM
Cc1nc(-c2n[nH]cc2-c2ccc3ncc(N4CCC(N5CCN(C)CC5)CC4)cc3n2)ccc1F [Compound 539, 2-[3-(5-fluoro-6-methyl-2-pyridyl)-1H-pyrazol-4-yl]-7-[4-(4-methylpiperazin-1-yl)-1-piperidyl]-1,5-naphthyridine] | 25.1 to 158 nM | < 0.0316 nM
Cc1cccc(-c2[nH]cnc2-c2ccc3ncc(C4=CCC(NC(C)C)CC4)cc3c2)n1 (centres unmarked) [Compound 540, N-isopropyl-4-[6-[5-(6-methyl-2-pyridyl)-1H-imidazol-4-yl]-3-quinolyl]cyclohex-3-en-1-amine] | 25.1 to 158 nM | < 0.0316 nM
Cc1cccc(-c2[nH]cnc2-c2ccc3ncc(-c4ccc(C(=O)O)nc4)cc3c2)n1 [Compound 541, 5-(6-(5-(6-methylpyridin-2-yl)-1H-imidazol-4-yl)quinolin-3-yl)picolinic Acid] | 1580 to 10000 nM | < 0.0316 nM
Cc1cccc(-c2n[nH]cc2-c2ccc3ncc(N4CC[C@@H](N5CCCCC5)C4)cc3n2)n1 [Compound 542, 2-[3-(6-methyl-2-pyridyl)-1H-pyrazol-4-yl]-7-[(3R)-3-(1-piperidyl)pyrrolidin-1-yl]-1,5-naphthyridine] | 25.1 to 158 nM | < 0.0316 nM
Cc1cccc(-c2n[nH]cc2-c2ccc3ncc(NC4CCCNC4)cc3n2)n1 (centres unmarked) [Compound 543, 6-[3-(6-methyl-2-pyridyl)-1H-pyrazol-4-yl]-N-(3-piperidyl)-1,5-naphthyridin-3-amine] | 25.1 to 158 nM | 0.0398 to 0.316 nM
Cc1cccc(-c2[nH]cnc2-c2ccc3ncc(-c4ccc(C(=O)O[C@H]5CCN(C)C5)cc4)cc3c2)n1 [Compound 545, [(3S)-1-methylpyrrolidin-3-yl] 4-[6-[5-(6-methyl-2-pyridyl)-1H-imidazol-4-yl]-3-quinolyl]benzoate] | 25.1 to 158 nM | 0.0398 to 0.316 nM
Cc1cccc(-c2n[nH]cc2-c2ccc3ncc(-c4nc(C(=O)O)co4)cc3n2)n1 [Compound 546, 2-[6-[3-(6-methyl-2-pyridyl)-1H-pyrazol-4-yl]-1,5-naphthyridin-3-yl]oxazole-4-carboxylic acid] | 1580 to 10000 nM | 0.398 to 3.16 nM
